{
  "source": "paper PMC10504751",
  "about": "“Chalcone/1,3,4-Oxadiazole/Benzimidazole hybrids as novel anti-proliferative agents inducing apoptosis and inhibiting EGFR & BRAFV^600E” (BMC Chemistry, 2023)",
  "assay_in_all_cases": "NCI one-dose SRB anti-proliferative screen",
  "format_in_all_cases": "cell-based",
  "key": {"UACC-257": {"system": "UACC-257", "details": "Homo sapiens; UACC-257 (Melanoma), NCI one dose 10 µM; read-out: Cell growth inhibition %", "outline": "(§1)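 Single 10 µM dose tested by NCI in its 60-cell-line panel covering nine tumour subpanels. Anti-proliferative activity was read by Sulforhodamine B colorimetric staining.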"}, "MALME-3M": {"system": "MALME-3M", "details": "Homo sapiens; MALME-3M (Melanoma), NCI one dose 10 µM; read-out: Cell growth inhibition %", "outline": "as §1"}, "OVCAR-8": {"system": "OVCAR-8", "details": "Homo sapiens; OVCAR-8 (Ovarian Cancer), NCI one dose 10 µM; read-out: Cell growth inhibition %", "outline": "as §1"}, "SNB-19": {"system": "SNB-19", "details": "Homo sapiens; SNB-19 (CNS Cancer), NCI one dose 10 µM; read-out: Cell growth inhibition %", "outline": "as §1"}, "RPMI-8226": {"system": "RPMI-8226", "details": "Homo sapiens; RPMI-8226 (Leukemia), NCI one dose 10 µM; read-out: Cell growth inhibition %", "outline": "as §1"}, "ACHN": {"system": "ACHN", "details": "Homo sapiens; ACHN (Renal Cancer), NCI one dose 10 µM; read-out: Cell growth inhibition %", "outline": "as §1"}, "NCI/ADR-RES": {"system": "NCI/ADR-RES", "details": "Homo sapiens; NCI/ADR-RES (Ovarian Cancer), NCI one dose 10 µM; read-out: Cell growth inhibition %", "outline": "as §1"}, "SW-620": {"system": "SW-620", "details": "Homo sapiens; SW-620 (Colon Cancer), NCI one dose 10 µM; read-out: Cell growth inhibition %", "outline": "as §1"}, "PC-3": {"system": "PC-3", "details": "Homo sapiens; PC-3 (Prostate Cancer), NCI one dose 10 µM; read-out: Cell growth inhibition %", "outline": "as §1"}, "HOP-62": {"system": "HOP-62", "details": "Homo sapiens; HOP-62 (Non-Small Cell Lung Cancer), NCI one dose 10 µM; read-out: Cell growth inhibition %", "outline": "as §1"}, "M14": {"system": "M14", "details": "Homo sapiens; M14 (Melanoma), NCI one dose 10 µM; read-out: Cell growth inhibition %", "outline": "as §1"}, "CCRF-CEM": {"system": "CCRF-CEM", "details": "Homo sapiens; CCRF-CEM (Leukemia), NCI one dose 10 µM; read-out: Cell growth inhibition %", "outline": "as §1"}, "EKVX": {"system": "EKVX", "details": "Homo sapiens; EKVX (Non-Small Cell Lung Cancer), NCI one dose 10 µM; read-out: Cell growth inhibition %", "outline": "as §1"}, "TK-10": {"system": "TK-10", "details": "Homo sapiens; TK-10 (Renal Cancer), NCI one dose 10 µM; read-out: Cell growth inhibition %", "outline": "as §1"}, "UO-31": {"system": "UO-31", "details": "Homo sapiens; UO-31 (Renal Cancer), NCI one dose 10 µM; read-out: Cell growth inhibition %", "outline": "as §1"}, "UACC-62": {"system": "UACC-62", "details": "Homo sapiens; UACC-62 (Melanoma), NCI one dose 10 µM; read-out: Cell growth inhibition %", "outline": "as §1"}, "MDA-MB-435": {"system": "MDA-MB-435", "details": "Homo sapiens; MDA-MB-435 (Melanoma), NCI one dose 10 µM; read-out: Cell growth inhibition %", "outline": "as §1"}, "NCI-H460": {"system": "NCI-H460", "details": "Homo sapiens; NCI-H460 (Non-Small Cell Lung Cancer), NCI one dose 10 µM; read-out: Cell growth inhibition %", "outline": "as §1"}, "LOX IMVI": {"system": "LOX IMVI", "details": "Homo sapiens, LOX IMIV (Melanoma), NCI one dose 10 µM, read-out: Cell growth inhibition %", "outline": "as §1"}, "OVCAR-5": {"system": "OVCAR-5", "details": "Homo sapiens; OVCAR-5 (Ovarian Cancer), NCI one dose 10 µM; read-out: Cell growth inhibition %", "outline": "as §1"}, "BT-549": {"system": "BT-549", "details": "Homo sapiens; BT-549 (Breast Cancer), NCI one dose 10 µM; read-out: Cell growth inhibition %", "outline": "as §1"}, "OVCAR-4": {"system": "OVCAR-4", "details": "Homo sapiens; OVCAR-4 (Ovarian Cancer), NCI one dose 10 µM; read-out: Cell growth inhibition %", "outline": "as §1"}, "SF-539": {"system": "SF-539", "details": "Homo sapiens; SF-539 (CNS Cancer), NCI one dose 10 µM; read-out: Cell growth inhibition %", "outline": "as §1"}, "MDA-MB-468": {"system": "MDA-MB-468", "details": "Homo sapiens; MDA-MB-468 (Breast Cancer), NCI one dose 10 µM; read-out: Cell growth inhibition %", "outline": "as §1"}, "SN12C": {"system": "SN12C", "details": "Homo sapiens, SN 12C (Renal Cancer), NCI one dose 10 µM, read-out: Cell growth inhibition %", "outline": "as §1"}, "SK-MEL-5": {"system": "SK-MEL-5", "details": "Homo sapiens; SK-MEL-5 (Melanoma), NCI one dose 10 µM; read-out: Cell growth inhibition %", "outline": "as §1"}, "HT29": {"system": "HT29", "details": "Homo sapiens, HT-29; HT29 (Colon Cancer), NCI one dose 10 µM; read-out: Cell growth inhibition %", "outline": "as §1"}, "HL-60(TB)": {"system": "HL-60(TB)", "details": "Homo sapiens; HL-60(TB) (Leukemia), NCI one dose 10 µM; read-out: Cell growth inhibition %", "outline": "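Activity reflects a single-point exposure at 10 µM, with cell mass determined by a sulforhodamine B dye assay.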"}, "SR": {"system": "SR", "details": "Homo sapiens; SR (Leukemia), NCI one dose 10 µM; read-out: Cell growth inhibition %", "outline": "as §1"}, "SK-OV-3": {"system": "SK-OV-3", "details": "Homo sapiens; SK-OV-3 (Ovarian Cancer), NCI one dose 10 µM; read-out: Cell growth inhibition %", "outline": "as §1"}, "NCI-H226": {"system": "NCI-H226", "details": "Homo sapiens; NCI-H226 (Non-Small Cell Lung Cancer), NCI one dose 10 µM; read-out: Cell growth inhibition %", "outline": "as §1"}, "SK-MEL-28": {"system": "SK-MEL-28", "details": "Homo sapiens; SK-MEL-28 (Melanoma), NCI one dose 10 µM; read-out: Cell growth inhibition %", "outline": "as §1"}},
  "data": [
    {"compound": "COc1cc(-c2nc3cc(-c4nnc(SCC(=O)Nc5ccc(C(=O)/C=C/c6ccc(Cl)cc6)cc5)o4)ccc3[nH]2)cc(OC)c1OC", "note": "[Compound 7v, 2-{5-[2-(3,4,5-Trimethoxyphenyl)-1 H-benzo[d]imidazol-5-yl]-1,3,4-oxadiazol-2-ylthio}-N-{4-[(E)-3-(4-chlorophenyl)acryloyl]phenyl}acetamide]", "values": [
      {"measurement": "inhibition at 10 µM", "setting": "UACC-257", "result": 0, "unit": "%"},
      {"measurement": "inhibition at 10 µM", "setting": "MALME-3M", "result": 0, "unit": "%"},
      {"measurement": "inhibition at 10 µM", "setting": "OVCAR-8", "result": 7.52, "unit": "%"},
      {"measurement": "inhibition at 10 µM", "setting": "SNB-19", "result": 6.59, "unit": "%"},
      {"measurement": "inhibition at 10 µM", "setting": "RPMI-8226", "result": 42.8, "unit": "%"},
      {"measurement": "inhibition at 10 µM", "setting": "ACHN", "result": 3.22, "unit": "%"},
      {"measurement": "inhibition at 10 µM", "setting": "NCI/ADR-RES", "result": 0, "unit": "%"},
      {"measurement": "inhibition at 10 µM", "setting": "SW-620", "result": 0, "unit": "%"},
      {"measurement": "inhibition at 10 µM", "setting": "PC-3", "result": 4.91, "unit": "%"},
      {"measurement": "inhibition at 10 µM", "setting": "HOP-62", "result": 0, "unit": "%"},
      {"measurement": "inhibition at 10 µM", "setting": "M14", "result": 0, "unit": "%"},
      {"measurement": "inhibition at 10 µM", "setting": "CCRF-CEM", "result": 18.4, "unit": "%"},
      {"measurement": "inhibition at 10 µM", "setting": "EKVX", "result": 0.51, "unit": "%"},
      {"measurement": "inhibition at 10 µM", "setting": "TK-10", "result": 0, "unit": "%"},
      {"measurement": "inhibition at 10 µM", "setting": "UO-31", "result": 16, "unit": "%"},
      {"measurement": "inhibition at 10 µM", "setting": "UACC-62", "result": 16, "unit": "%"},
      {"measurement": "inhibition at 10 µM", "setting": "MDA-MB-435", "result": 1.02, "unit": "%"},
      {"measurement": "inhibition at 10 µM", "setting": "NCI-H460", "result": 0, "unit": "%"},
      {"measurement": "inhibition at 10 µM", "setting": "LOX IMVI", "result": 132, "unit": "%"},
      {"measurement": "inhibition at 10 µM", "setting": "OVCAR-5", "result": 0.76, "unit": "%"},
      {"measurement": "inhibition at 10 µM", "setting": "BT-549", "result": 15.6, "unit": "%"},
      {"measurement": "inhibition at 10 µM", "setting": "OVCAR-4", "result": 0, "unit": "%"},
      {"measurement": "inhibition at 10 µM", "setting": "SF-539", "result": 25.3, "unit": "%"},
      {"measurement": "inhibition at 10 µM", "setting": "MDA-MB-468", "result": 6.96, "unit": "%"},
      {"measurement": "inhibition at 10 µM", "setting": "SN12C", "result": 9.61, "unit": "%"},
      {"measurement": "inhibition at 10 µM", "setting": "SK-MEL-5", "result": 8.57, "unit": "%"},
      {"measurement": "inhibition at 10 µM", "setting": "HT29", "result": 0, "unit": "%"},
      {"measurement": "inhibition at 10 µM", "setting": "HL-60(TB)", "result": 7.46, "unit": "%"},
      {"measurement": "inhibition at 10 µM", "setting": "SR", "result": 39.6, "unit": "%"},
      {"measurement": "inhibition at 10 µM", "setting": "SK-OV-3", "result": 0, "unit": "%"},
      {"measurement": "inhibition at 10 µM", "setting": "NCI-H226", "result": 8.31, "unit": "%"},
      {"measurement": "inhibition at 10 µM", "setting": "SK-MEL-28", "result": 0, "unit": "%"}
    ]}
  ]
}
